Assay results reported in patent publication US20040224981A1, “Antibacterial methods and compositions” (priority 2003, published 2004).
Like-named read-outs stand apart in the source and are kept apart here.

How the values were obtained:
[1] = test system: E. faecalis; experiment: MIC against E. faecalis; type: cell-based; settings: Table 8
Protocol: The MRS inhibitor 4 alone and in combination with mupirocin (mupirocin salt and 1:1 combination) were tested against a collection of Gram-positive pathogens.
(§1) MRSi compound 5 alone and in combination with mupirocin was tested recent clinical isolates of E. faecalis (n=28) and E. faecium (n=23). Both the acetate salt and mupirocinate salts of MRSi compound 5 maintained potent activity against vancomycin-susceptible and—resistant enterococci (Tables 8, 9, and 10).

[2] = test system: S. aureus; experiment: MIC against S. aureus strains and clinical isolates (broth microdilution); type: cell-based, Staphylococcus aureus; settings: for MIC Range: all S. aureus strains of Table 1 (mupirocin-susceptible and -resistant)
Protocol: were tested against a collection of clinical isolates of S. aureus including strains that were multi-resistant to mupirocin and to other agents such as gentamicin and oxacillin.
The acetate and mupirocin salts of the MRS inhibitor compound 5 were tested against a collection of both low and high-level mupirocin resistant clinical isolates of S. aureus (Table 6).
The bacterial strains were tested for susceptibility to mupirocin and MRSi compound 2 using the broth microdilution method in accordance with NCCLS guideline to determine their MICs.
Briefly, the MIC and checkerboard titration assays were performed with strains in microtiter trays with cation-supplemented Mueller-Hinton broth (Difco). Inocula were prepared by suspending growth from blood agar plates in sterile saline to a density equivalent to that of a 0.5 McFarland standard and were diluted […] to produce a final inoculum of 5×10^5 CFU/ml. The trays were incubated aerobically overnight. Standard quality control strains were included with each run. Fractional inhibitory concentrations (FICs) were calculated as the MIC of drug A or B in combination/MIC of drug A or B alone, and the FIC index was obtained by adding the two FICs. FIC indices were interpreted as synergistic if the values were ≦0.5, additive or indifferent if the values were >0.5 to 4, and antagonistic if the values were >4.0.

[3] = test system: E. faecium; experiment: MIC against E. faecium; type: cell-based; settings: Table 8, E. faecium ATCC 33667
Protocol: as §1

[4] = Enterococcus faecalis, ATCC 51299 / VRE, E. faecalis ATCC 51299 (VRE), read-out: MIC
[5] = Enterococcus faecalis, E. faecalis 1, read-out: MIC
[6] = Enterococcus faecalis, E. faecalis 7, read-out: MIC
[7] = Enterococcus faecium, ATCC33667, read-out: MIC
[8] = all S. aureus isolates of Table 6

**Q.** Which results are given for O=c1cc(NC[C@H]2CCC[C@@H]2NCc2ccc(Cl)c(Cl)c2)[nH]c2ccccc12 [MRSi cmpd 3, 2-{[(1R, 2S)-2-(3,4-Dichlorobenzylamino)cyclopentylmethyl]amino}-1H-quinolin-4-one]?
**A.** MIC [1, 4]: 0.5 µg/mL; MIC [1, 5]: 0.12 µg/mL; MIC [1, 6]: 0.5 µg/mL; MIC ([2]; Staphylococcus aureus, ATCC43300, S. aureus ATCC 43300 (ORSA), read-out: MIC): 4 µg/mL; MIC ([2]; Staphylococcus aureus, NRS 1 / VISA, S. aureus NRS1 (VISA), read-out: MIC): 4 µg/mL; MIC ([2]; Staphylococcus aureus, NRS107, S. aureus NRS107 (HL Mup rest.), read-out: MIC): 1 µg/mL; MIC ([2]; Staphylococcus aureus, S. aureus 10-420 (LL Mup. Rest.), read-out: MIC): 2 µg/mL; MIC ([2]; Staphylococcus aureus, S. aureus 14-354 (LL Mup. Rest.), read-out: MIC): 4 µg/mL; MIC ([2]; Staphylococcus aureus, S. aureus 25-670 (HL Mup. Rest.), read-out: MIC): 4 µg/mL; MIC ([2]; Staphylococcus aureus, S. aureus 31-1334 (LL Mup Rest.), read-out: MIC): 2 µg/mL; MIC ([2]; Staphylococcus aureus, S. aureus 36-1298 (LL Mup. Rest.), read-out: MIC): 1 µg/mL; MIC ([2]; Staphylococcus aureus, S. aureus 87-2797 (HL Mup. Rest.), read-out: MIC): 4 µg/mL; MIC ([2]; Staphylococcus aureus, S. aureus 87-2797 (Mup. Susc.), read-out: MIC): 2 µg/mL; MIC ([2]; Staphylococcus aureus, S. aureus 101-100 (Mup. Susc.), read-out: MIC): 2 µg/mL; MIC ([2]; Staphylococcus aureus, S. aureus LZ1 (HL Mup rest.), read-out: MIC): 2 µg/mL; MIC ([2]; Staphylococcus aureus, S. aureus LZ6 (HL Mup rest.), read-out: MIC): 2 µg/mL; MIC ([2]; Staphylococcus aureus, S. aureus LZ8 (LL Mup. Rest.), read-out: MIC): 4 µg/mL; MIC ([2]; Staphylococcus aureus, S. aureus LZ9, read-out: MIC): 2 µg/mL; MIC ([2]; Staphylococcus aureus, S. aureus LZ10, read-out: MIC): 2 µg/mL; MIC ([2]; Staphylococcus aureus, S. aureus Miles Hall, read-out: MIC): 2 µg/mL; MIC ([2]; Staphylococcus aureus, S. aureus Oxford, read-out: MIC): 2 µg/mL; MIC90 ([2]; Staphylococcus aureus, all S. aureus strains of Table 1, read-out: MIC 90): 4 µg/mL; MIC Range [2]: 1 to 4 µg/mL; MIC [3, 7]: 0.03 µg/mL

**Q.** How did the MIC ([1]; E. faecalis 1) turn out when O=c1cc(NCCCNC2CCNc3c(Br)cc(Br)cc32)[nH]c2ccccc12 (stereo not drawn) [MRSi cmpd 1, 2-[3-(6,8-Dibromo-2,3,4,5-tetrahydroquinolin-4-ylamino)prop-1-ylamino]-1H-quinolin-4-one] was run?
**A.** Its MIC is “≦0.004 μg/mL”.

**Q.** What about the MIC ([1]; E. faecalis 7) of the same compound?
**A.** The MIC was 0.015 µg/mL.

**Q.** What about the MIC ([1]; E. faecalis ATCC 51299 (VRE)) of the same compound?
**A.** The MIC was 0.015 µg/mL.

**Q.** What about the MIC ([2]; S. aureus 10-420 (LL Mup. Rest.)) of the same compound?
**A.** The MIC was 0.12 µg/mL.

**Q.** What about the MIC ([2]; S. aureus 14-354 (LL Mup. Rest.)) of the same compound?
**A.** The MIC was 0.25 µg/mL.

**Q.** And the MIC ([2]; S. aureus 25-670 (HL Mup. Rest.))?
**A.** The MIC was 0.12 µg/mL.

**Q.** What about the MIC ([2]; S. aureus 31-1334 (LL Mup Rest.)) of the same compound?
**A.** The MIC was 0.12 µg/mL.

**Q.** What about the MIC ([2]; S. aureus 36-1298 (LL Mup. Rest.)) of the same compound?
**A.** The MIC was 0.015 µg/mL.

**Q.** What about the MIC ([2]; S. aureus 87-2797 (HL Mup. Rest.)) of the same compound?
**A.** The MIC was 0.12 µg/mL.

**Q.** And the MIC ([2]; S. aureus 87-2797 (Mup. Susc.))?
**A.** Its MIC is 0.12 µg/mL.

**Q.** And the MIC ([2]; S. aureus 101-100 (Mup. Susc.))?
**A.** The MIC was 0.06 µg/mL.

**Q.** What about the MIC ([2]; S. aureus ATCC 43300 (ORSA)) of the same compound?
**A.** Its MIC is 0.25 µg/mL.

**Q.** What about the MIC ([2]; S. aureus LZ1 (HL Mup rest.)) of the same compound?
**A.** The MIC was 0.06 µg/mL.

**Q.** What about the MIC ([2]; S. aureus LZ6 (HL Mup rest.)) of the same compound?
**A.** The MIC was 0.12 µg/mL.

**Q.** And the MIC ([2]; S. aureus LZ8 (LL Mup. Rest.))?
**A.** The MIC was 0.06 µg/mL.

**Q.** What about the MIC ([2]; S. aureus LZ9) of the same compound?
**A.** Its MIC is 0.06 µg/mL.

**Q.** And the MIC ([2]; S. aureus LZ10)?
**A.** The MIC was 0.12 µg/mL.

**Q.** And the MIC ([2]; S. aureus Miles Hall)?
**A.** Its MIC is 0.12 µg/mL.

**Q.** What about the MIC ([2]; S. aureus NRS1 (VISA)) of the same compound?
**A.** The MIC was 0.12 µg/mL.

**Q.** What about the MIC ([2]; S. aureus NRS107 (HL Mup rest.)) of the same compound?
**A.** Its MIC is 0.03 µg/mL.

**Q.** And the MIC ([2]; S. aureus Oxford)?
**A.** Its MIC is 0.12 µg/mL.

**Q.** What about the “MIC90” value ([2]; all S. aureus strains of Table 1) of the same compound?
**A.** The value was 0.25 µg/mL.

**Q.** And the “MIC Range” value [2]?
**A.** The value was 0.015 to 0.12 µg/mL.

**Q.** And the MIC [3]?
**A.** Its MIC is “≦0.004 μg/mL”.

**Q.** Which results are given for “N-(4-bromo-5-(1-fluorovinyl)-3-methylthiophen-2-ylmethyl)-N′(1H-quinolin-4-one)propane-1,3-diamine Mupirocinate [MRSi Cmpd 5 mupirocinate]”?
**A.** MIC50 [2, 8]: 0.12 µg/mL; MIC90 [2, 8]: 1 µg/mL

**Q.** How did the MIC [1, 4] turn out when CC1(C)S[C@@H]2[C@H](NC(=O)[C@H](N)c3ccccc3)C(=O)N2[C@H]1C(=O)O [Ampicillin, reference compound] was run?
**A.** Its MIC is 0.5 µg/mL.

**Q.** What about the MIC [1, 5] of the same compound?
**A.** Its MIC is 0.5 µg/mL.

**Q.** What about the MIC [1, 6] of the same compound?
**A.** Its MIC is 0.5 µg/mL.

**Q.** And the MIC [3, 7]?
**A.** The MIC was 1 µg/mL.
